Measured values: PMC9503778, “Targeted Isolation of Antibiotic Brominated Alkaloids from the Marine Sponge Pseudoceratina durissima Using Virtual Screening and Molecular Networking” (Marine Drugs, 2022)
“And” between values parts separate entries of the source, which are not always exact repeats. Identical values can stand only once. Like-named read-outs stand apart in the source and are kept apart here.

What was measured:
[1] = test system: P. auruginosa (G-) strain ATCC 27853; experiment: Antimicrobial growth inhibition (CO-ADD), P. aeruginosa; assay type: cell-based, Pseudomonas aeruginosa; conditions: for % inhibition P. aeruginosa: 32 µg/mL; for inhibition at 32 µg/mL / MIC: Pseudomonas aeruginosa
Method: (§1) Compounds 1−3 and 5−12 were assayed against a selection of medically important pathogenic microorganisms (MRSA, E. coli, K. pneumoniae, A. baumanii, P. aeruginosa, C. albicans, C. neoformans), Table 4. […] To the best of our knowledge this compound had not been tested against any drug resistant strain of Gram-positive bacterium until this study.
(§2) The antimicrobial activity testing was performed by the Community for Antimicrobial Drug Discovery (CO-ADD). Compounds were assayed against a range of both Gram negative and Gram positive bacteria (see Supplementary Materials S3) including methicillin-resistant Staphylococcus aureus (MRSA) (G+), Escherichia coli (G-), Klebsiella pneumoniae (G-), Acinetobacter baumannii (G-), Pseudomonas aeruginosa (G-) together with two species of fungus (Candida albicans and Cryptococcus neoformans).
(§3) S3. Antimicrobial activity testing methodology
The compounds submitted to CO-ADD were evaluated in duplicate (n = 2) against seven microorganisms (five bacteria and two fungi) at a concentration of 32 µg/mL in a 384-well, non-binding surface plate (NBS) for each bacterial/fungal strain, keeping the final DMSO concentration to a maximum of 1% DMSO. All bacteria were cultured in cation-adjusted Mueller-Hinton broth (CAMHB) at 37 °C overnight. A sample of each culture was then diluted 40-fold in fresh broth and incubated at 37 °C for 1.5-3 h. The resultant mid-log phase cultures were diluted (CFU/mL measured by OD600), then added to each well of the compound containing plates, giving a cell density of 5x10^5 CFU/mL and a total volume of 50 µL. All the plates were covered and incubated at 37 °C for 18 h without shaking. […] Inhibition of bacterial growth was determined measuring absorbance at 600 nm (OD600) using a Tecan M1000 Pro mon-ochromator plate reader. […]
(§4) 2 h. The absorbance was measured using a Biotek Synergy HTX plate reader. The percentage of growth inhibition was calculated for each well, using negative control (medium only) and positive control (bacteria without inhibitors) on the same plate as the references. The significance of inhibition values was determined by modified Z-scores, calculated using the median and MAD of the samples (no controls) on the same plate. Samples with inhibition value above 80% and Z-score above 2.5 for either replicate (n = 2 on different plates) were classed as actives.
(§5) Colistin and vancomycin were used as positive bacterial inhibitor standards for Gram-negative and Gram-positive bac-teria, respectively. Fluconazole was used as a positive fungal inhibitor standard for C. albicans and C. neoformans. The antibiotics were provided in four concentrations, with two above and two below its MIC value, and plated into the first eight wells of column 23 of the 384-well NBS plates. The quality control (QC) of the assays was determined by the antimicrobial controls and the Z’-factor (using positive and negative controls). Each plate was deemed to fulfil the qual- […]
(§6) full growth inhibition at their highest concentration, and no growth inhibition at their lowest concentration. The seven […]
(§7) test microorganisms were Staphylococcus aureus MRSA (ATCC 43300), Escherichia coli (ATCC 25922), Klebsiella pneu-moniae (ATCC 700603), Acinetobacter baumanii (ATCC19606), Pseudomonas aeruginosa (ATCC 27853), Candida albicans (ATCC 90028) and Cryptococcus neoformans var. grubii (H99; ATCC 208821).
(§8) S4. Anthelmintic activity testing methodology
Dose-response evaluations were carried out to estimate the half-maximal inhibitory concentrations (IC50 values) for compounds against Haemonchus contortus (Haecon-5 strain) exsheathed third-stage larvae (xL3s). H. contortus were maintained in experimental sheep and procured in accordance with the institutional animal ethics guidelines and the regulations of Australia (permit no. 1714374; University of Melbourne). Immediately prior to use, third-stage larvae (L3s) were exsheathed and sterilised by incubation in 0.15% (v/v) bleach at 38 °C for 20 min, followed by washes in […]

[2] = test system: C. albicans (yeast) ATCC 90028; experiment: Antimicrobial growth inhibition (CO-ADD), C. albicans; assay type: cell-based, Candida albicans; conditions: for % inhibition C. albicans: 32 µg/mL, duplicate (n = 2) values; for inhibition at 32 µg/mL / MIC: Candida albicans; for inhibition at 32 µg/mL: ATCC90028, read-out: % inhibition C. albicans, 32 µg/mL, duplicate (n = 2) values
Method: as §1, §2, §3
The compounds submitted to CO-ADD were evaluated in duplicate (n = 2) against seven microorganisms (five bacteria and two fungi) at a concentration of 32 µg/mL in a 384-well, non-binding surface plate (NBS) for each bacterial/fungal strain, keeping the final DMSO concentration to a maximum of 1% DMSO. All bacteria were cultured in cation-adjusted […]
Fungal strains were cultured for 3 days on Yeast Extract-Peptone Dextrose (YPD) agar at 30 °C. A yeast suspension of 1 x 10^6 to 5 x 10^6 CFU/mL (as determined by OD530) was prepared from five colonies. The suspension was subsequently diluted and added to each well of the compound-containing plates giving a final cell density of fungi suspension of 2.5 x 10^3 CFU/mL and a total volume of 50 µL. All plates were covered and incubated at 35 °C for 24 h without shaking. […]
as §4, §5, §6, §7, §8
Dose-response evaluations were carried out to estimate the half-maximal inhibitory concentrations (IC50 values) for compounds against Haemonchus contortus (Haecon-5 strain) exsheathed third-stage larvae (xL3s). H. contortus were maintained in experimental sheep and procured in accordance with the institutional animal ethics guidelines and the regulations of Australia (permit no. 1714374; University of Melbourne). Immediately prior to use, third-stage larvae (L3s) were exsheathed and sterilised by incubation in 0.15% (v/v) bleach at 38 °C for 20 min, followed by washes in sterile saline at room temperature (22-24 °C). […]

[3] = test system: C. neoformans var. grubii strain ATCC 208821; experiment: Antimicrobial growth inhibition (CO-ADD), C. neoformans; assay type: cell-based; conditions: Cryptococcus neoformans
[4] = ATCC27853, read-out: % inhibition P. aeruginosa, 32 µg/mL, duplicate (n = 2) values
[5] = ATCC27853, ATCC 27853, read-out: MIC P. aeruginosa
[6] = ATCC90028, ATCC 90028, read-out: MIC C. albicans
[7] = ATCC208821, var. grubii ATCC 208821, read-out: MIC C. neoformans

Structure (SMILES)	MIC [1, 5]	MIC [2, 6]	MIC [3, 7]	% inhibition P. aeruginosa ([1]; duplicate (n = 2) values)	inhibition at 32 µg/mL [1, 4]	MIC ([1]; ATCC27853, read-out: MIC P. aeruginosa)	% inhibition C. albicans [2]	inhibition at 32 µg/mL [2]	MIC ([2]; ATCC90028, read-out: MIC C. albicans)	MIC ([3]; ATCC208821, read-out: MIC C. neoformans)	inhibition at 32 µg/mL ([1]; ATCC27853, 32 µg/mL, duplicate (n = 2) values, read-out: % inhibition P. aeruginosa)
COC1=C(Br)[C@H](O)[C@](O)(CC#N)C=C1Br [Compound 1, (+)-aeroplysinin-1]				18.2%	10.9%	> 32 µg/mL	9.8%	9.5%	> 32 µg/mL	> 32 µg/mL	
COC1=C(Br)[C@H](O)[C@@]2(C=C1Br)CC(C(=O)NCCCCCNC(=O)C1=NO[C@]3(C=C(Br)C(OC)=C(Br)[C@@H]3O)C1)=NO2 [Compound 3, homoaerothionin]	> 32 µg/mL	> 32 µg/mL	> 32 µg/mL	10.4% and 2.2%			6.3%	3.4%			
COC1=C(Br)[C@H](O)[C@@]2(C=C1Br)CC(C(=O)NCCCOc1c(Br)cc(CCNC(=O)C3=NO[C@]4(C=C(Br)C(OC)=C(Br)[C@@H]4O)C3)cc1Br)=NO2 [Compound 5, 11,17-deoxyfistularin-3]	> 32 µg/mL	> 32 µg/mL	> 32 µg/mL	7.2%	4.3%		3.3%	2.5%			
COC1=C(Br)[C@H](O)[C@@]2(C=C1Br)CC(C(=O)NCCCOc1c(Br)cc(CCN)cc1Br)=NO2 [Compound 11, araplysillin I]	> 32 µg/mL	> 32 µg/mL	> 32 µg/mL	0.3% and 8.0%							

More lines, main results first:

MIC [1, 5]	MIC [2, 6]	MIC [3, 7]	Structure (SMILES)	% inhibition P. aeruginosa ([1]; duplicate (n = 2) values)	inhibition at 32 µg/mL [1, 4]	MIC ([1]; ATCC27853, read-out: MIC P. aeruginosa)	% inhibition C. albicans [2]	inhibition at 32 µg/mL [2]	MIC ([2]; ATCC90028, read-out: MIC C. albicans)	MIC ([3]; ATCC208821, read-out: MIC C. neoformans)	inhibition at 32 µg/mL ([1]; ATCC27853, 32 µg/mL, duplicate (n = 2) values, read-out: % inhibition P. aeruginosa)
> 32 µg/mL	> 32 µg/mL	> 32 µg/mL	COC1=C(Br)[C@H](O)[C@@]2(C=C1Br)CC(C(=O)NCCCCNC(=O)C1=NO[C@]3(C=C(Br)C(OC)=C(Br)[C@@H]3O)C1)=NO2 [Compound 2, aerothionin]				0.5% and 4.2%				
> 32 µg/mL	> 32 µg/mL	> 32 µg/mL	COC1(OC)C(Br)=CC(O)(CC(N)=O)C=C1Br [Compound 6, 2-(3,5-dibromo-1-hydroxy-4,4-dimethoxycyclohexa-2,5-dien-1-yl)acetamide]	1.1% and 9.7%			0.6% and 4.6%				
> 32 µg/mL	> 32 µg/mL	> 32 µg/mL	COc1c(Br)cc(CC#N)c(O)c1Br [Compound 8, 2-(3,5-dibromo-2-hydroxy-4-methoxyphenyl)acetonitrile]	6.8%							11.2%
> 32 µg/mL	> 32 µg/mL	> 32 µg/mL	NC(=O)Cc1c(O)cc(Br)c(O)c1Br [Compound 9, subereaphenol A]								
